Measurements reported in the METLIN SMRT retention time set (Domingo-Almenara et al. 2019).

Assay: gradient 5% acetonitrile 3 min, to 50% in 2 min, to 85% in 15 min, held 3 min, 100 µL/min
Details: column: Zorbax Extend-C18 2.1 x 50 mm; eluents: water / acetonitrile, 0.1% formic acid
Summary of the method: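 Data were gathered over 3 months by HPLC coupled to a quadrupole time-of-flight mass spectrometer, operated in positive and negative ionization mode. Mixtures of ~100 pure standards ran on a Zorbax Extend-C18 column (2.1 × 50 mm, 1.8 μm) at 100 μL/min, with water and acetonitrile each containing 0.1% formic acid and dead and dwell volumes of 40 μL and 900 μL. Retention time was read from adduct peaks picked by computer and checked manually.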

Row | SMILES | RP-LC retention time
1 | COC(=O)c1ccc(NC(=O)Cn2c(=O)cc(-c3nc(C(C)C)no3)c3ccccc32)cc1 | 990 s
2 | Cc1ccccc1C(=O)N1CCC2(CC1)NC(=O)c1cc(F)ccc1N2C | 749 s
3 | CCCCOc1ccc(S(=O)(=O)N2CCN(c3nc(C)cc(N4CCOCC4)n3)CC2)cc1 | 818 s
4 | COc1cccc(-c2c(C(=O)O)nnn2-c2ccc(OC)c(OC)c2)c1 | 715 s
5 | CC(=O)N1CCOc2cc(S(=O)(=O)N3CCCCCC3c3cccc(F)c3)ccc21 (centres undefined) | 999 s
6 | CS(=O)(=O)N1CCC(C(=O)N2CCCc3ccccc32)Oc2ccc(Cl)cc21 (centres undefined) | 991 s
7 | Cc1ccc2[nH]cc(CCNC(=O)CSCc3nnc(C(=O)Nc4ccc(F)cc4)s3)c2c1 | 918 s
8 | COc1cccc(-n2c(=O)c3sccc3n(Cc3nc(-c4ccccc4)no3)c2=O)c1 | 956 s
9 | CCCNC(=O)N1CCCC(CCc2nnc(-c3cnccn3)o2)C1 (centres undefined) | 647 s
10 | CCOc1ccccc1-c1noc(Cn2c(=O)n(Cc3ccc(C)cc3)c(=O)c3sccc32)n1 | 1170 s
11 | Cc1nc(-c2cc(S(=O)(=O)NCc3ccc(F)cc3F)c(C)s2)cs1 | 956 s
12 | COc1cccc(C2CC(c3ccc(Br)cc3)=NC3(CCN(C(C)=O)CC3)N2)c1O (centres undefined) | 694 s
13 | c1cc(-c2nc3c(c(N4CCSCC4)n2)CCC3)ccn1 | 675 s
14 | CCn1c(CCNC(=O)c2ccc(N(C)C)cc2)nc2cccnc21 | 625 s
15 | CCc1ccc(NS(=O)(=O)c2ccc(-c3nnc(C4CCC4)o3)o2)cc1 | 996 s
16 | CC(C)n1c(=O)n(CC(=O)NC2CCCc3ccccc32)c2cc(S(=O)(=O)N3CCCC3)ccc21 (centres undefined) | 927 s
17 | C[C@]12CCC(=O)C(=O)C1CC[C@@H]1[C@@H]2CC[C@]2(C)C(=O)CC[C@@H]12 (some centres undefined) | 1030 s
18 | COc1ccc(NC(=O)N2CCC3(C2)C(=O)N(C)c2ccccc23)cc1OC (centres undefined) | 808 s
19 | O=C(NC(=O)c1ccccc1)OCCN1CCN(c2ncc(C(F)(F)F)cc2Cl)CC1 | 692 s
20 | Cc1cc(C(=O)NC2CCCC2)c2cccc(Cl)c2n1 | 840 s
21 | CCn1ccc2sc(C)c(C(=O)NCc3cccc(C)c3)c2c1=O | 850 s
22 | Cc1nc(C)c(C(=O)NCC23CCC=C2N(C)C(=O)CC3)s1 (centres undefined) | 651 s
23 | COc1ccc(-c2noc(-c3nc(C)no3)n2)c(OC)c1 | 888 s

Row | SMILES | RP-LC retention time
24 | Cc1nc(COc2ccccc2)sc1C(=O)N1CCC(C(N)=O)CC1 | 925 s
25 | CCOc1ccccc1CNC(=O)C1CCN(C(=O)c2ncn3c2COC(c2ccccc2)C3)CC1 (centres undefined) | 803 s
26 | COc1cccc(NC(=O)CN2CCc3[nH]c4c(OC)ccc(Cl)c4c(=O)c3C2)c1 | 610 s
27 | CCNc1cc(N2CCC(CCC(=O)NCc3ccc(C)o3)CC2)ncn1 | 642 s
28 | CCC(C)NC(=O)c1ccc(NC(=O)C2CC2)cc1N1CCCCCC1 (centres undefined) | 738 s
29 | CC1(C(=O)NC2CCCC2)CC(c2ccccc2)=NO1 (centres undefined) | 700 s
30 | O=C1CCC(C(=O)N2CCN(c3ccc(-n4cccn4)nn3)CC2)N1 (centres undefined) | 548 s
31 | CN(C)c1ccc(-c2noc(C3CC(=O)N(c4ccc5c(c4)OCCO5)C3)n2)cc1 (centres undefined) | 920 s
32 | Cc1ccc(NC(=O)Cn2c(-c3cnccn3)nc(C)c(C)c2=O)cc1Cl | 842 s
33 | Cc1ccc2[nH]c(=O)c(CCC(=O)O)cc2c1 | 651 s
34 | O=C(COc1ccc(Cl)cc1)Nc1ccccc1NC(=O)c1cccs1 | 887 s
35 | N#CC1(C(=O)NCCc2ccc(Cl)cc2)CC1 | 873 s
36 | Cc1scc2nc(C(=O)Nc3ccccc3)nc(N(C)C)c12 | 658 s
37 | CC(C)c1ccc2c(c1)-c1ccccc1S(=O)(=O)N2CC(=O)NCCN1CCOCC1 | 692 s
38 | COc1cc(NC(=O)NCC(c2cccnc2)c2cn(C)c3ccccc23)cc(OC)c1OC (centres undefined) | 661 s
39 | CCn1c(N2CCN(C(=O)Nc3ccccc3OC)CC2)nc2ccccc21 | 655 s
40 | O=C(NC1CCCCCCC1)C1CCN(S(=O)(=O)c2cc(C(=O)N3CCOCC3)cs2)CC1 | 838 s
41 | O=C(NC1CCCCCC1)C1CCCN(c2ccnc(-c3ccc(F)cc3)n2)C1 (centres undefined) | 730 s
42 | CCCNC(=O)c1cc(C)nc2ccc(F)cc12 | 646 s
43 | Cc1ccc(C)c(NC(=O)C2CC(=O)N(c3n[nH]c4cccc(F)c34)C2)c1 (centres undefined) | 758 s
44 | O=C(c1csc(N2CCN(c3ccc(Cl)cc3)CC2)n1)N1CCCCC1 | 1130 s
45 | O=C(NCCc1ccccc1)N1CCC(OC2CCN(Cc3ccccc3)CC2)CC1 | 652 s
46 | CCNc1nc(N(C)C)nc(-n2cnc(SC)n2)n1 | 784 s

Row | SMILES | RP-LC retention time
47 | CC1CCN(c2cc3c(cc2NC(=O)C(C)(C)C)n(C)c(=O)c(=O)n3C)CC1 | 1010 s
48 | CCc1c(C(=O)O)nnn1Cc1cccc(OC)c1 | 687 s
49 | O=C(c1ccc2c(c1)OCO2)N1CCC(N2C[C@H]3C[C@H](C2)[C@H]2CCCC(=O)N2C3)CC1 | 561 s
50 | CCC1CN2C=NC(N3CCN(C(=O)c4ccccc4)CC3)=CC2=N1 (centres undefined) | 611 s
51 | Cc1cccc(N2CCN(S(=O)(=O)c3cc(-c4nnc(C5CC5)o4)co3)CC2)c1 | 1020 s
52 | COc1cccc(Cn2c(=O)c3sccc3n(Cc3nc(-c4cccc(OC)c4)no3)c2=O)c1 | 1080 s
53 | Cc1c(C(=O)NC2CC2)c(C)n(C)c1-c1ccccc1 | 830 s
54 | O=C(O)c1nnn(-c2cccc(Cl)c2)c1-c1ccncc1 | 657 s
55 | Cc1ccc(CNC(=O)c2cccc(CN3C(=O)C4CCCN4C(=O)c4ccccc43)c2)o1 (centres undefined) | 757 s
56 | CCN(CC)CCNC(=O)c1nnc(-c2oc3c(C)cccc3c2C)o1 | 683 s
57 | Cc1ccc2c(=O)c(C(=O)N3CCC(C)CC3)cn(CC(=O)Nc3ccccc3)c2n1 | 783 s
58 | Cc1ccc2nc(C(=O)N3CCN(c4ccc(Cl)cc4)CC3)cn2c1 | 738 s
59 | COc1cccc(NC(=O)N2CCc3c(c(-c4nnc(-c5ccc(F)cc5)o4)nn3C)C2)c1 | 833 s
60 | Cn1cccc1-c1cc2n(n1)CCCN2C(=O)CCC(=O)NCc1ccc(F)cc1 | 717 s
61 | CC(C)c1cc(N2CCN(c3ccccn3)CC2)n2c(nc3ccccc32)c1C#N | 695 s
62 | CC(C)(C)c1noc(-c2ccnc(-n3cnc(C(=O)N4CCSCC4)c3)c2)n1 | 952 s
63 | COc1ccc2nc(C(=O)NCc3ccc(Br)cc3)cn2n1 | 879 s
64 | COc1ccc(C(=O)N2CCC(COc3ccc(C(=O)NC(C)C)cc3)CC2)c(C)c1 | 851 s
65 | COCCCN(CC(=O)N1CCNCC1)C(=O)c1ccc(F)c(Cl)c1 | 596 s
66 | CCc1ccc(C(=O)N2CC3CN(S(=O)(=O)c4cccc(C)c4)CC(C2)O3)cc1 | 925 s
67 | CC1CCC(NS(=O)(=O)c2ccc3c(c2)c(=O)n(CC(=O)N2CCCC2)c(=O)n3C)CC1 (centres undefined) | 834 s
68 | CCn1c(=O)c(N2CCN(C(=O)Nc3cc(C)cc(C)c3)CC2)nc2ccccc21 | 927 s
69 | CCOC(=O)C1=CN(CC(=O)NCc2ccc(Cl)cc2)S(=O)(=O)N=C1C | 906 s

Row | SMILES | RP-LC retention time
70 | O=S(=O)(c1ccc(Br)cc1)N1CCCC1c1nc(-c2ccc(F)cc2)no1 (centres undefined) | 1160 s
71 | CCOc1ccc(NC(=O)Cn2c(=O)cc(-c3nc(C)no3)c3ccccc32)cc1 | 862 s
72 | CCC(C)NC(=O)C1CCN(Cc2cc3ccccc3n2Cc2ccccc2Cl)CC1 (centres undefined) | 784 s
73 | CC(C)NC(=O)c1ccc(OCC2CCCN2C(=O)Cc2cccs2)cc1 (centres undefined) | 807 s
74 | CC(=O)Nc1ccc(SCC(=O)c2ccc(Cl)cc2)nn1 | 756 s
75 | CCc1ccc2[nH]c3c(c(=O)c2c1)CN(CC(=O)NCc1ccccc1OC)CC3 | 621 s
76 | CC(=O)c1ccc(S(=O)(=O)NCCC2CCN(C(=O)c3ccccc3)CC2)cc1 | 773 s
77 | CCC1Oc2ccc(S(=O)(=O)N3CCC(C(=O)NCc4cccc(OC)c4)CC3)cc2NC1=O (centres undefined) | 953 s
78 | CCc1nnc2cc(N3CCN(C(=O)Nc4cccc(C)c4)CC3)cnn12 | 593 s
79 | Cc1ccc(S(=O)(=O)N2CCC3(CC2)c2nccn2CCN3C)cc1F | 654 s
80 | Cc1ccc(Nc2c(-c3ccc(O)cc3)nc3cccc(C)n23)cc1 | 732 s
81 | Cc1cccc(NC(=O)Nc2nc(C)c(C(=O)NC3CCCC3)s2)c1 | 812 s
82 | Cc1cc(C)c(C(=O)N2CCC(CC(=O)NCc3cccc(Cl)c3)CC2)[nH]1 | 804 s
83 | Cc1ccc(C(=O)N2CCC(C(=O)N3CCCCCCNC(=O)CC3)CC2)s1 | 668 s
84 | O=C(NCc1ccc(F)cc1)Nc1c(-c2ccccc2)nc2ccccn12 | 639 s
85 | O=S(=O)(c1ccc2c(c1)-c1oncc1CO2)N1CCN(c2ccc(F)cc2)CC1 | 1040 s
86 | O=C(COc1ccc(Cl)cc1)N1CCN(CC(F)(F)F)CC1 | 853 s
87 | COc1cccc(C2=Nc3cccnc3N(CC(=O)NCc3ccco3)C(=O)C2)c1 | 809 s
88 | CC(C)c1cc(C(=O)NC2CCCC2)nc2ccnn12 | 979 s
89 | O=C(CCc1c(-c2ccccc2)nc2ccccn12)Nc1ccccc1C(F)(F)F | 691 s
